Columns and labels:
Assay in all cases: KinomeScan
Type in all cases: binding
Settings in all cases: 1 μM
[1] = biological target: T1, MST4 (Homo sapiens, UniProt Q9P289)
T1 construct: purchased DiscoverX (KINOMEscan)

[2] = biological target: T2, TNIK (Homo sapiens, UniProt Q9UKE5)
T2 construct: purchased DiscoverX (KINOMEscan)

[3] = biological target: T3, CAMK2B (Homo sapiens, UniProt Q13554)
T3 construct: purchased DiscoverX (KINOMEscan)

[4] = biological target: T4, DCAMKL3 (Homo sapiens, UniProt Q9C098)
T4 construct: purchased DiscoverX (KINOMEscan)

[5] = biological target: T5, CSNK1D (Homo sapiens, UniProt P48730)
T5 construct: purchased DiscoverX (KINOMEscan)

[6] = biological target: T6, MINK (Homo sapiens, UniProt Q8N4C8)
T6 construct: purchased DiscoverX (KINOMEscan)

[7] = biological target: T7, EPHB1 (Homo sapiens, UniProt P54762)
T7 construct: purchased DiscoverX (KINOMEscan)

[8] = biological target: T8, EPHA4 (Homo sapiens, UniProt P54764)
T8 construct: purchased DiscoverX (KINOMEscan)

[9] = biological target: T9, CSNK1E (Homo sapiens, UniProt P49674)
T9 construct: purchased DiscoverX (KINOMEscan)

[10] = biological target: T10, GRK7 (Homo sapiens, UniProt Q8WTQ7)
T10 construct: purchased DiscoverX (KINOMEscan)

[11] = biological target: T11, MKK7 (Homo sapiens, UniProt O14733)
T11 construct: purchased DiscoverX (KINOMEscan)

[12] = biological target: T12, MAP3K4 (Homo sapiens, UniProt Q9Y6R4)
T12 construct: purchased DiscoverX (KINOMEscan)

[13] = biological target: T13, TBK1 (Homo sapiens, UniProt Q9UHD2)
T13 construct: purchased DiscoverX (KINOMEscan)

[14] = biological target: T14, STK39 (Homo sapiens, UniProt Q9UEW8)
T14 construct: purchased DiscoverX (KINOMEscan)

[15] = biological target: T15, MARK4 (Homo sapiens, UniProt Q96L34)
T15 construct: purchased DiscoverX (KINOMEscan)

[16] = biological target: T16, HUNK (Homo sapiens, UniProt P57058)
T16 construct: purchased DiscoverX (KINOMEscan)

[17] = biological target: T17, FGFR3 (Homo sapiens, UniProt P22607)
T17 construct: purchased DiscoverX (KINOMEscan)

[18] = biological target: T18, JNK1 (Homo sapiens, UniProt P45983)
T18 construct: purchased DiscoverX (KINOMEscan)

[19] = biological target: T19, CSNK1G3 (Homo sapiens, UniProt Q9Y6M4)
T19 construct: purchased DiscoverX (KINOMEscan)

[20] = biological target: T20, ICK (Homo sapiens, UniProt Q9UPZ9)
T20 construct: purchased DiscoverX (KINOMEscan)

[21] = biological target: T21, NLK (Homo sapiens, UniProt Q9UBE8)
T21 construct: purchased DiscoverX (KINOMEscan)

[22] = biological target: T22, CHEK1 (Homo sapiens, UniProt O14757)
T22 construct: purchased DiscoverX (KINOMEscan)

[23] = biological target: T23, MET(Y1235D) (Homo sapiens, UniProt P08581, Y1235D)
T23 construct: purchased DiscoverX (KINOMEscan)

[24] = biological target: T24, ALK (Homo sapiens, UniProt Q9UM73)
T24 construct: purchased DiscoverX (KINOMEscan)

[25] = biological target: T25, BMPR1A (Homo sapiens, UniProt P36894)
T25 construct: purchased DiscoverX (KINOMEscan)

[26] = biological target: T26, AAK1 (Homo sapiens, UniProt Q2M2I8)
T26 construct: purchased DiscoverX (KINOMEscan)

[27] = biological target: T27, CHEK2 (Homo sapiens, UniProt O96017)
T27 construct: purchased DiscoverX (KINOMEscan)

[28] = biological target: T28, ZAK (Homo sapiens, UniProt Q9NYL2)
T28 construct: purchased DiscoverX (KINOMEscan)

[29] = biological target: T29, DDR2 (Homo sapiens, UniProt Q16832)
T29 construct: purchased DiscoverX (KINOMEscan)

[30] = biological target: T30, MAP4K3 (Homo sapiens, UniProt Q8IVH8)
T30 construct: purchased DiscoverX (KINOMEscan)

[31] = biological target: T31, CDC2L1 (Homo sapiens, UniProt P21127)
T31 construct: purchased DiscoverX (KINOMEscan)

[32] = biological target: T32, BIKE (Homo sapiens, UniProt Q9NSY1)
T32 construct: purchased DiscoverX (KINOMEscan)

[33] = biological target: T33, FGFR1 (Homo sapiens, UniProt P11362)
T33 construct: purchased DiscoverX (KINOMEscan)

[34] = biological target: T34, JNK2 (Homo sapiens, UniProt P45984)
T34 construct: purchased DiscoverX (KINOMEscan)

[35] = biological target: T35, BTK (Homo sapiens, UniProt Q06187)
T35 construct: purchased DiscoverX (KINOMEscan)

[36] = biological target: T36, EGFR(G719C) (Homo sapiens, UniProt P00533, G719C)
T36 construct: purchased DiscoverX (KINOMEscan)

[37] = biological target: T37, CDKL1 (Homo sapiens, UniProt Q00532)
T37 construct: purchased DiscoverX (KINOMEscan)

[38] = biological target: T38, FGR (Homo sapiens, UniProt P09769)
T38 construct: purchased DiscoverX (KINOMEscan)
T38 sequence (P09769 whole entry): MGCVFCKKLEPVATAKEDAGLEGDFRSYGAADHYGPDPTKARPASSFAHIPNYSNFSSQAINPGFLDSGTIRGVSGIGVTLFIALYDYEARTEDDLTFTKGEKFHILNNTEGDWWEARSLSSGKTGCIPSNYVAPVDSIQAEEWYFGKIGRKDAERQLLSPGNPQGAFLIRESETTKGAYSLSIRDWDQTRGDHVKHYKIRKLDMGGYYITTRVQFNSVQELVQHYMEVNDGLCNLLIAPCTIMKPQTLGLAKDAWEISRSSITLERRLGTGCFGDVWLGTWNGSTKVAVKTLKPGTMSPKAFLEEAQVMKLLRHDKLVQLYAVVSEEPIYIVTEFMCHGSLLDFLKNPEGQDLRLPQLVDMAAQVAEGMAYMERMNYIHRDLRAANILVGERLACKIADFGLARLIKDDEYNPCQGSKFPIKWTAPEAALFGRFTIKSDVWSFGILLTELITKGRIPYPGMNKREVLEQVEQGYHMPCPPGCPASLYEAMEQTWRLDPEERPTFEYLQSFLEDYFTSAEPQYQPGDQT

T28 sequence (Q9NYL2 whole entry): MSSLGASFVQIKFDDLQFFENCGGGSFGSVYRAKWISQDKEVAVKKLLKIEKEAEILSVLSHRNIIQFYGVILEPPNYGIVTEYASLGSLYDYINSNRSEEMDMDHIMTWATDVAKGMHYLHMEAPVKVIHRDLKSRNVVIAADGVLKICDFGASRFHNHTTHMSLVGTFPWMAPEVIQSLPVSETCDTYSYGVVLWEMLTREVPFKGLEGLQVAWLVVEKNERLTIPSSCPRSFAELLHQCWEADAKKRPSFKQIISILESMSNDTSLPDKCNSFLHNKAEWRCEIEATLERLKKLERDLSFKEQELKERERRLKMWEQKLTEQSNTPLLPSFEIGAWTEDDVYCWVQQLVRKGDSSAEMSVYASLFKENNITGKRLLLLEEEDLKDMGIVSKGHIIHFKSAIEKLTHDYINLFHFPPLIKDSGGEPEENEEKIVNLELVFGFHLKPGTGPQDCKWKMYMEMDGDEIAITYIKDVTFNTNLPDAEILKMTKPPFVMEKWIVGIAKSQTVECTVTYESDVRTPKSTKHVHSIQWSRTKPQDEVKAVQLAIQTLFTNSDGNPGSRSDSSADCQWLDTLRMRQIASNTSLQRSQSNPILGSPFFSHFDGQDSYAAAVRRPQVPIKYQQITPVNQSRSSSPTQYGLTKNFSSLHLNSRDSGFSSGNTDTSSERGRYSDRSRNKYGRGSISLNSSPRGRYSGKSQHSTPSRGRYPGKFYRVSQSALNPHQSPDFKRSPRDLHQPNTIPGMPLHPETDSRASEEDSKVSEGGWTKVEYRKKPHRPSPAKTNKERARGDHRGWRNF
T21 sequence (Q9UBE8 whole entry): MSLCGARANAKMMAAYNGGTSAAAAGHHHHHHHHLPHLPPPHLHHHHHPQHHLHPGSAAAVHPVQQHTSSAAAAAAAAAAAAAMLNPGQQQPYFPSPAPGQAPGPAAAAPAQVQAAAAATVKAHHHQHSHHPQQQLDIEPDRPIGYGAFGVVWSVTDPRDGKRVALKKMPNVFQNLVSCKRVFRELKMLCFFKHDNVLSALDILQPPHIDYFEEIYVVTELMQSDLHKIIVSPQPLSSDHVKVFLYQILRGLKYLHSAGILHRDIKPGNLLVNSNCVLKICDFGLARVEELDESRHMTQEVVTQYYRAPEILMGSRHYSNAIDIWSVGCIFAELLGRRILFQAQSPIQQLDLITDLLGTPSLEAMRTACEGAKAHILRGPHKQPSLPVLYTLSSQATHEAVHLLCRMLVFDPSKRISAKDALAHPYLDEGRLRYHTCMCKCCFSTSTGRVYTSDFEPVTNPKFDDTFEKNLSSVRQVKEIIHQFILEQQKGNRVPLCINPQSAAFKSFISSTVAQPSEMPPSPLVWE
T9 sequence (P49674 whole entry): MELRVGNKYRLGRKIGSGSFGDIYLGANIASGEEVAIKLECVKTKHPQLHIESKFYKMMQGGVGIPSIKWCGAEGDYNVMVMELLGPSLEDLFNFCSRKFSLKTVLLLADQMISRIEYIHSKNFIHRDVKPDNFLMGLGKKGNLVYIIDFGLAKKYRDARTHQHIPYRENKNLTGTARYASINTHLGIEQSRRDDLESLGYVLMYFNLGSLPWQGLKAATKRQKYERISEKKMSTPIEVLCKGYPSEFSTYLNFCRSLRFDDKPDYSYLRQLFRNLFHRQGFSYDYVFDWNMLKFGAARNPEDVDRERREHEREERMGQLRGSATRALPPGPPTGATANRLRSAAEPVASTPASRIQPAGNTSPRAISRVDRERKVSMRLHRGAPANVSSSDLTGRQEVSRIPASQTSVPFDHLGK
T24 sequence (Q9UM73 19-1620): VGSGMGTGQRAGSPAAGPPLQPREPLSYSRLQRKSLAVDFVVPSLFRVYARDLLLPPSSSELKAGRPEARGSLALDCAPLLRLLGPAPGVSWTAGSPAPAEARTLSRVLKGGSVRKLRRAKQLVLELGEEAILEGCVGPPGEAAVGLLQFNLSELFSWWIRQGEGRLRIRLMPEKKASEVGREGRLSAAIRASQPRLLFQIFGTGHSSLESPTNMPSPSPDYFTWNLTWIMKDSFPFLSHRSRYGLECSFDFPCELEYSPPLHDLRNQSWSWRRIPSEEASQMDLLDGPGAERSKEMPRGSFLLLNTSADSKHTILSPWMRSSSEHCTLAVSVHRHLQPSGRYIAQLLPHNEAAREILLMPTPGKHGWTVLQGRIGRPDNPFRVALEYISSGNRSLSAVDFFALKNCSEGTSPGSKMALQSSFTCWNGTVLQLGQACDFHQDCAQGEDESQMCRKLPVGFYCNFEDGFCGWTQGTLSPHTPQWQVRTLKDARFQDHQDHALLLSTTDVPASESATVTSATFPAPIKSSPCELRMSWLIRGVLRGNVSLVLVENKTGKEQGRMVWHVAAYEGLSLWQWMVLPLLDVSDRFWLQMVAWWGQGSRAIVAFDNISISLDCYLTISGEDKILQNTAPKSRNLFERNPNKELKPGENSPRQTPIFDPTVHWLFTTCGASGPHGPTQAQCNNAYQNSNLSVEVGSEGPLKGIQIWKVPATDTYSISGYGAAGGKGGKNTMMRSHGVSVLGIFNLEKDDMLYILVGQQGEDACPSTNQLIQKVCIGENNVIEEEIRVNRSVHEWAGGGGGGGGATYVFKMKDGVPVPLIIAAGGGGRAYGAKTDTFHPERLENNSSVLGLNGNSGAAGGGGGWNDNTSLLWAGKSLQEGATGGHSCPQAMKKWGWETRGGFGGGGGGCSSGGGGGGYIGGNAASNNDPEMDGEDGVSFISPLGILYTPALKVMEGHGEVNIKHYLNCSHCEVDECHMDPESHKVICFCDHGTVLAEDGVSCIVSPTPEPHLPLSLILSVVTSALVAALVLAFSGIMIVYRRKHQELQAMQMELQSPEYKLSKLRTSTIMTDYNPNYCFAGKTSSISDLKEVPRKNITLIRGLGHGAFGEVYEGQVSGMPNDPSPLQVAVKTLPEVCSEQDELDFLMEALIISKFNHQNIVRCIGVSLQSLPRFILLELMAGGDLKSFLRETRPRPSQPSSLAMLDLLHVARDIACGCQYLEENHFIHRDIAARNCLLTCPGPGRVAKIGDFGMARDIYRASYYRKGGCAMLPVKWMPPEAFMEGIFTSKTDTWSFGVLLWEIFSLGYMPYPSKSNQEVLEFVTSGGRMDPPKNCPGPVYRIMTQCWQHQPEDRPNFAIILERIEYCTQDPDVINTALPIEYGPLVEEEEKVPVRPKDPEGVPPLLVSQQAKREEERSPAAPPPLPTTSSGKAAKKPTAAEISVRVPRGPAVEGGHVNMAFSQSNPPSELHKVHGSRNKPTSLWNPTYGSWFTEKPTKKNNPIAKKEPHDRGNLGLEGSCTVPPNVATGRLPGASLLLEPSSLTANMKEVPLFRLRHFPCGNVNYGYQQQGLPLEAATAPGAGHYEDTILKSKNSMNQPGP
T17 sequence (P22607 23-806): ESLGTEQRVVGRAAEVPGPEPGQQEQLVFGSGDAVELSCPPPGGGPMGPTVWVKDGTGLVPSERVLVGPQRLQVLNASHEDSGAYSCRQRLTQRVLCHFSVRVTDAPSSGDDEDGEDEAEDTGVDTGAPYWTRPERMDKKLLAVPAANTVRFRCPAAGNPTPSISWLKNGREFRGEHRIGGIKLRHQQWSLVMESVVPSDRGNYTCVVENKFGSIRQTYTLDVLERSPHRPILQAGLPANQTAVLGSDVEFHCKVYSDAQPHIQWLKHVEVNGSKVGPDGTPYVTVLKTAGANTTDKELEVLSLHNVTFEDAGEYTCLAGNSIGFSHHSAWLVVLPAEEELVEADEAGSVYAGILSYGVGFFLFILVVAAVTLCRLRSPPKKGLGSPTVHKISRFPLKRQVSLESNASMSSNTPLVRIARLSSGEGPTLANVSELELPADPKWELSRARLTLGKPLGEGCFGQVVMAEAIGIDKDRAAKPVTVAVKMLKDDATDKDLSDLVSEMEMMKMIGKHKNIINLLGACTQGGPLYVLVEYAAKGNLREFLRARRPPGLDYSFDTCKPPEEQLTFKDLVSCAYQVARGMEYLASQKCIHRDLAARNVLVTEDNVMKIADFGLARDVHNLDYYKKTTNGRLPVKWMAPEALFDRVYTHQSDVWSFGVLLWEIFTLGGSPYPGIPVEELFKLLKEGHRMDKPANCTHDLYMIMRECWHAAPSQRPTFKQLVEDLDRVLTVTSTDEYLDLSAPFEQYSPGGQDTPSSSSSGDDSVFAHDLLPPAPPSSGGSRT
T37 sequence (Q00532 whole entry): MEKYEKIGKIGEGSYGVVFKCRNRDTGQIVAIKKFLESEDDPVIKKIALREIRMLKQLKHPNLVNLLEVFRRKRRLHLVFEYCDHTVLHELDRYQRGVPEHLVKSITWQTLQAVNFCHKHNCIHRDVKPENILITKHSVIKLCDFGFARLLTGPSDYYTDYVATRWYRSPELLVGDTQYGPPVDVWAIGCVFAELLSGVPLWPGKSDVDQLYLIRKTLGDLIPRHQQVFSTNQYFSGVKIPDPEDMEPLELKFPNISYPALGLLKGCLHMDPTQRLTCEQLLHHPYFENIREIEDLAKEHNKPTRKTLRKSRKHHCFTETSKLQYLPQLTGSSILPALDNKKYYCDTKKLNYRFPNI

COc1cc(/C=C2\N=C(N)NC2=O)ccc1O [Polyandrocarpamine A]
Score [1]: 100 | Score [2]: 100 | Score [3]: 90 | Score [4]: 94 | Score [5]: 70 | Score [6]: 100 | Score [7]: 89 | Score [8]: 83 | Score [9]: 87 | Score [10]: 100 | Score [11]: 89 | Score [12]: 100 | Score [13]: 100 | Score [14]: 100 | Score [15]: 100 | Score [16]: 100 | Score [17]: 100 | Score [18]: 100 | Score [19]: 84 | Score [20]: 100 | Score [21]: 100 | Score [22]: 100 | Score [23]: 100 | Score [24]: 100 | Score [25]: 100 | Score [26]: 100 | Score [27]: 100 | Score [28]: 95 | Score [29]: 69 | Score [30]: 78 | Score [31]: 100 | Score [32]: 70 | Score [33]: 100 | Score [34]: 100 | Score [35]: 100 | Score [36]: 95 | Score [37]: 100 | Score [38]: 100

From paper PMC5666424, “Marine-Derived 2-Aminoimidazolone Alkaloids. Leucettamine B-Related Polyandrocarpamines Inhibit Mammalian and Protozoan DYRK & CLK Kinases” (Marine Drugs, 2017)
